Results from the supplement of paper PMC10307832.

How the values were obtained:
Assay in all cases: relative viability (nuclei count vs DMSO), 5 days (fraction); higher = more cells survive
ChaGo-K-1 = system: ChaGo-K-1
In short: (§1)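 Lung cancer cell lines in 1536-well plates were dosed by pin tool the day after seeding, either with one drug alone or with a fixed anchor-drug dose plus five library-drug doses (not always all listed) in √10 steps. After 5 days, cells were fixed and their nuclei stained in one step (final 0.05% Triton X-100, 1% formaldehyde, 1 ug/ml Hoechst), then counted on 4× images. Relative viability is the nuclei count in treated wells divided by that in vehicle wells. Values are medians of duplicate plates.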

EKVX = system: EKVX
In short: as §1

EMC-BAC-2 = system: EMC-BAC-2
In short: as §1

EPLC-272H = system: EPLC-272H
In short: as §1

HCC-78 = system: HCC-78
In short: as §1

HCC-827 = system: HCC-827
In short: as §1

LCLC-103H = system: LCLC-103H
In short: as §1

LK-2 = system: LK-2
In short: as §1

LU99A = system: LU99A
In short: as §1

LXF-289 = system: LXF-289
In short: as §1

NCI-H1666 = system: NCI-H1666
In short: as §1

NCI-H1975 = system: NCI-H1975
In short: as §1

NCI-H2126 = system: NCI-H2126
In short: as §1

NCI-H2342 = system: NCI-H2342
In short: as §1

NCI-H23 = system: NCI-H23
In short: as §1

NCI-H2405 = system: NCI-H2405
In short: as §1

NCI-H322M = system: NCI-H322M
In short: as §1

PC-14 = system: PC-14
In short: as §1

RERF-LC-KJ = system: RERF-LC-KJ
In short: as §1

SK-LU-1 = system: SK-LU-1
In short: as §1

SW 1573 = system: SW 1573
In short: as §1

SW 900 = system: SW 900
In short: as §1

How did the relative viability (ChaGo-K-1; first compound 0.08 µM) turn out when `COc1nc(C)cnc1NS(=O)(=O)c1cccnc1-c1ccc(-c2nnco2)cc1` [Zibotentan] + Nc1ncn([C@H]2C[C@H](O)[C@@H](CO)O2)c(=O)n1 [Decitabine] (partner 2 µM) was run?
Its relative viability is 0.512.

What about the relative viability (ChaGo-K-1; first compound 0.253 µM) of the same molecule?
Its relative viability is 0.493.

And the relative viability (ChaGo-K-1; first compound 0.8 µM)?
Its relative viability is 0.508.

What about the relative viability (ChaGo-K-1; first compound 2.53 µM) of the same molecule?
The relative viability was 0.55.

And the relative viability (EKVX; first compound 0.08 µM)?
The relative viability was 0.325.

What about the relative viability (EKVX; first compound 0.253 µM) of the same molecule?
Its relative viability is 0.339.

And the relative viability (EKVX; first compound 0.8 µM)?
Its relative viability is 0.286.

And the relative viability (EKVX; first compound 2.53 µM)?
The relative viability was 0.346.

What about the relative viability (EMC-BAC-2; first compound 0.08 µM) of the same molecule?
Its relative viability is 1.01.

What about the relative viability (EMC-BAC-2; first compound 0.8 µM) of the same molecule?
The relative viability was 0.968.

And the relative viability (EMC-BAC-2; first compound 2.53 µM)?
The relative viability was 1.01.

And the relative viability (EPLC-272H; first compound 0.08 µM)?
Its relative viability is 0.41.

What about the relative viability (EPLC-272H; first compound 0.253 µM) of the same molecule?
Its relative viability is 0.304.

What about the relative viability (EPLC-272H; first compound 0.8 µM) of the same molecule?
The relative viability was 0.366.

What about the relative viability (EPLC-272H; first compound 2.53 µM) of the same molecule?
The relative viability was 0.394.

And the relative viability (HCC-78; first compound 0.08 µM)?
The relative viability was 0.795.

And the relative viability (HCC-78; first compound 0.253 µM)?
Its relative viability is 0.564.

What about the relative viability (HCC-78; first compound 0.8 µM) of the same molecule?
The relative viability was 0.68.

What about the relative viability (HCC-78; first compound 2.53 µM) of the same molecule?
The relative viability was 0.656.

What about the relative viability (HCC-827; first compound 0.08 µM) of the same molecule?
Its relative viability is 0.341.

And the relative viability (HCC-827; first compound 0.253 µM)?
Its relative viability is 0.333.

What about the relative viability (HCC-827; first compound 0.8 µM) of the same molecule?
Its relative viability is 0.341.

What about the relative viability (HCC-827; first compound 2.53 µM) of the same molecule?
The relative viability was 0.343.

And the relative viability (LCLC-103H; first compound 0.08 µM)?
The relative viability was 0.718.

And the relative viability (LCLC-103H; first compound 0.253 µM)?
The relative viability was 0.727.

What about the relative viability (LCLC-103H; first compound 0.8 µM) of the same molecule?
Its relative viability is 0.738.

What about the relative viability (LCLC-103H; first compound 2.53 µM) of the same molecule?
Its relative viability is 0.709.

What about the relative viability (LK-2; first compound 0.08 µM) of the same molecule?
Its relative viability is 0.387.

And the relative viability (LK-2; first compound 0.253 µM)?
The relative viability was 0.289.

What about the relative viability (LK-2; first compound 0.8 µM) of the same molecule?
The relative viability was 0.317.

What about the relative viability (LK-2; first compound 2.53 µM) of the same molecule?
The relative viability was 0.213.

And the relative viability (LU99A; first compound 0.08 µM)?
Its relative viability is 0.933.

And the relative viability (LU99A; first compound 0.253 µM)?
Its relative viability is 0.848.

What about the relative viability (LU99A; first compound 0.8 µM) of the same molecule?
The relative viability was 0.95.

What about the relative viability (LU99A; first compound 2.53 µM) of the same molecule?
Its relative viability is 1.06.

And the relative viability (LXF-289; first compound 0.08 µM)?
Its relative viability is 0.357.

And the relative viability (LXF-289; first compound 0.253 µM)?
The relative viability was 0.346.

What about the relative viability (LXF-289; first compound 0.8 µM) of the same molecule?
Its relative viability is 0.409.

What about the relative viability (LXF-289; first compound 2.53 µM) of the same molecule?
Its relative viability is 0.367.

What about the relative viability (NCI-H1666; first compound 0.08 µM) of the same molecule?
Its relative viability is 0.71.

What about the relative viability (NCI-H1666; first compound 0.253 µM) of the same molecule?
The relative viability was 0.685.

What about the relative viability (NCI-H1666; first compound 0.8 µM) of the same molecule?
The relative viability was 0.745.

And the relative viability (NCI-H1666; first compound 2.53 µM)?
Its relative viability is 0.56.

And the relative viability (NCI-H1975; first compound 0.08 µM)?
Its relative viability is 0.565.

And the relative viability (NCI-H1975; first compound 0.253 µM)?
The relative viability was 0.384.

And the relative viability (NCI-H1975; first compound 0.8 µM)?
The relative viability was 0.403.

What about the relative viability (NCI-H1975; first compound 2.53 µM) of the same molecule?
The relative viability was 0.377.

And the relative viability (NCI-H2126; first compound 0.08 µM)?
Its relative viability is 0.617.

What about the relative viability (NCI-H2126; first compound 0.253 µM) of the same molecule?
Its relative viability is 0.602.

And the relative viability (NCI-H2126; first compound 0.8 µM)?
Its relative viability is 0.599.

What about the relative viability (NCI-H2126; first compound 2.53 µM) of the same molecule?
Its relative viability is 0.551.

What about the relative viability (NCI-H2342; first compound 0.08 µM) of the same molecule?
The relative viability was 0.659.

And the relative viability (NCI-H2342; first compound 0.253 µM)?
The relative viability was 0.776.

What about the relative viability (NCI-H2342; first compound 0.8 µM) of the same molecule?
The relative viability was 0.707.

And the relative viability (NCI-H2342; first compound 2.53 µM)?
Its relative viability is 0.71.

And the relative viability (NCI-H23; first compound 0.08 µM)?
The relative viability was 0.321.

And the relative viability (NCI-H23; first compound 0.253 µM)?
Its relative viability is 0.286.

And the relative viability (NCI-H23; first compound 0.8 µM)?
Its relative viability is 0.34.

And the relative viability (NCI-H23; first compound 2.53 µM)?
Its relative viability is 0.38.

What about the relative viability (NCI-H2405; first compound 0.08 µM) of the same molecule?
The relative viability was 0.764.

And the relative viability (NCI-H2405; first compound 0.253 µM)?
Its relative viability is 0.684.

And the relative viability (NCI-H2405; first compound 0.8 µM)?
Its relative viability is 0.767.

What about the relative viability (NCI-H2405; first compound 2.53 µM) of the same molecule?
The relative viability was 0.73.

What about the relative viability (NCI-H322M; first compound 0.08 µM) of the same molecule?
The relative viability was 0.74.

What about the relative viability (NCI-H322M; first compound 0.253 µM) of the same molecule?
Its relative viability is 0.679.

And the relative viability (NCI-H322M; first compound 0.8 µM)?
Its relative viability is 0.733.

What about the relative viability (NCI-H322M; first compound 2.53 µM) of the same molecule?
Its relative viability is 0.856.

And the relative viability (PC-14; first compound 0.08 µM)?
The relative viability was 0.267.

And the relative viability (PC-14; first compound 0.253 µM)?
The relative viability was 0.198.

And the relative viability (PC-14; first compound 0.8 µM)?
Its relative viability is 0.287.

And the relative viability (PC-14; first compound 2.53 µM)?
Its relative viability is 0.265.

And the relative viability (RERF-LC-KJ; first compound 0.08 µM)?
The relative viability was 0.699.

And the relative viability (RERF-LC-KJ; first compound 0.253 µM)?
The relative viability was 0.558.

What about the relative viability (RERF-LC-KJ; first compound 0.8 µM) of the same molecule?
Its relative viability is 0.708.

What about the relative viability (RERF-LC-KJ; first compound 2.53 µM) of the same molecule?
The relative viability was 0.634.

And the relative viability (SK-LU-1; first compound 0.08 µM)?
Its relative viability is 0.805.

What about the relative viability (SK-LU-1; first compound 0.253 µM) of the same molecule?
Its relative viability is 0.688.

What about the relative viability (SK-LU-1; first compound 0.8 µM) of the same molecule?
Its relative viability is 0.722.

And the relative viability (SK-LU-1; first compound 2.53 µM)?
The relative viability was 0.642.

What about the relative viability (SW 1573; first compound 0.08 µM) of the same molecule?
The relative viability was 0.611.

And the relative viability (SW 1573; first compound 0.8 µM)?
The relative viability was 0.702.

And the relative viability (SW 1573; first compound 2.53 µM)?
The relative viability was 0.613.

What about the relative viability (SW 900; first compound 0.08 µM) of the same molecule?
Its relative viability is 0.482.

And the relative viability (SW 900; first compound 0.253 µM)?
Its relative viability is 0.345.

What about the relative viability (SW 900; first compound 0.8 µM) of the same molecule?
The relative viability was 0.49.

And the relative viability (SW 900; first compound 2.53 µM)?
The relative viability was 0.438.
